Laboratory results published in patent US20160279187A1, “CALPAIN INHIBITORS FOR IBD AND COLORECTAL CANCER TREATMENT” (UNIVERSITY OF HAWAII, priority 2013, published 2016).
Where a SMILES comes first, the peptide text is derived from it. The star is where a group is joined. Cbz = O=C(OCc1ccccc1)*; CH2F = FC*

Assays:
Type in all cases: cell-based, mouse
[1] = test system: Bone marrow derived macrophages (BMDM); experiment: cytokine production by activated bone marrow derived macrophages (CBA); conditions: 20 μg/ml; TNFα primed, E. faecalis activated BMDM
Procedure: Bone marrow derived macrophages (BMDM) were prepared as previously described by methods known to those skilled in the art. On day 5 of culture, 2×10^6 BMDM were seeded in 6-well plates and the following day were primed for 18 h with TNFα (20 ng/mL), followed by 1 h stimulation with E. faecalis (1 μg/mL; ATCC). Stimulation with E. faecalis was conducted in the presence of the zLLY-CH2F calpain-2 inhibitor (20 μg/mL) or DMSO as a control. Media was removed from treated BMDM, centrifuged at 300×g for 5 min and supernatent analyzed using the Cytometric Bead Array Mouse Inflammation Kit (BD Biosciences, San Jose, Calif.). Cytokine data were analyzed using Flowjo software (Ashland, Oreg.) and GraphPad Prism version 4.0 (GraphPad, La Jolla, Calif.). Cell pellets were lysed and analyzed for IκB and NFκB by Western blot as previously described (Miyazaki, T. et al. Journal of Atherosclerosis and Thrombosis 20, 228-237, 2013). In other experiments, mouse CT-26.WT and human HT-29 colon cancer cells were plated in 96-well plates at 10^3 cells/well with 20 μg/mL inhibitor or DMSO, followed by analyses for IκB and NFκB by Western blot as described above for BMDM. For proliferation assays, fresh media with 20 μg/mL inhibitor or DMSO were added every 2 d. Each day 4 wells were quantified using Celltiter MTS reagent (Promega) and the resulting signal was used to generate a proliferation curve. Calpain activity was measured using a Calpain activity assay kit (BioVision, Inc., Milpitas, Calif.) as previously described. Colons were harvested on day 4 and calpain activity measured. Enzyme-linked immunosorbant assay (ELISA) analyses of cecum hemoglobin has been previously described (Miyazaki, T. et al. Journal of Atherosclerosis and Thrombosis 20, 228-237, 2013).
To determine if a similar mechanism may be contributing to the effect of the calpain-2 inhibition in the DSS model of colitis, macrophages were analyzed for NFκB activation and inflammatory cytokine secretion. Bone marrow derived macrophages were primed […] with TNFα (20 ng/ml) and activated with E. faecalis (1 μg/ml) for 1 h in the presence or absence of calpain-2 inhibitor (20 μg/ml). Supernatants were evaluated for a panel of cytokines including IFNγ, TNFα, IL-6, and MCP-1, IL-10, and IL-12. Real-time PCR was performed on total RNA extracted from colon tissues to access levels of cytokines. Media was collected from wells and cytokines assessed by CBA kit (BD Biosciences). For IκB blotting cells were lysed and SDS-PAGE was performed. Membranes were stained with anti-IκB (Cell Signalling) and anti-βactin (Santa Cruz). For NfκB blotting an NFκB Activation Kit (Five Photon) was used to isolate nuclear fractions. These fractions were transferred using SDS-PAGE. The membranes were stained with anti-NFκB (Santa Cruz) or anti-TATA (Abcam). Data are mean±SE (n=3) and represent results from three independent experiments. *p<0.05; one way ANOVA followed by Tukey post-test. […] Importantly, those cytokines most affected by the calpain-2 are regulated by NFκB.

[2] = test system: IκB / NFκB in TNFα primed macrophages; experiment: IκB and nuclear NFκB western blot in activated macrophages; conditions: vs DMSO
Procedure: Bone marrow derived macrophages (BMDM) were prepared as previously described by methods known to those skilled in the art. On day 5 of culture, 2×10^6 BMDM were seeded in 6-well plates and the following day were primed for 18 h with TNFα (20 ng/mL), followed by 1 h stimulation with E. faecalis (1 μg/mL; ATCC). Stimulation with E. faecalis was conducted in the presence of the zLLY-CH2F calpain-2 inhibitor (20 μg/mL) or DMSO as a control. Media was removed from treated BMDM, centrifuged at 300×g for 5 min and supernatent analyzed using the Cytometric Bead Array Mouse Inflammation Kit (BD Biosciences, San Jose, Calif.). Cytokine data were analyzed using Flowjo software (Ashland, Oreg.) and GraphPad Prism version 4.0 (GraphPad, La Jolla, Calif.). Cell pellets were lysed and analyzed for IκB and NFκB by Western blot as previously described (Miyazaki, T. et al. Journal of Atherosclerosis and Thrombosis 20, 228-237, 2013). […] Each day 4 wells were quantified using Celltiter MTS reagent (Promega) and the resulting signal was used to generate a proliferation curve. Calpain activity was measured using a Calpain activity assay kit (BioVision, Inc., Milpitas, Calif.) as previously described. Colons were harvested on day 4 and calpain activity measured. […] Supernatants were evaluated for a panel of cytokines including IFNγ, TNFα, IL-6, and MCP-1, IL-10, and IL-12. […]

[3] = test system: IκB / NFκB in CT-26 WT cells; experiment: IκB and nuclear NFκB western blot, CT-26.WT; conditions: vs DMSO

CC(C)C[C@H](NC(=O)OCc1ccccc1)C(=O)N[C@@H](CC(C)C)C(=O)N[C@@H](Cc1ccc(O)cc1)C(=O)CF [zLLY-CH2F, Z-LLY-CH2F] (Cbz-Leu-Leu-Tyr-CH2F)
production of IFNγ [1]: significant decrease
production of IL-6 [1]: significant decrease
production of IL-10 [1]: not significantly affected
production of IL-12 [1]: not significantly affected
production of MCP-1 [1]: significant decrease
production of TNFα [1]: significant decrease
IκB degradation [2]: decreased
NFκB localization to the nucleus [2]: decreased
IκB degradation [3]: reduced
NFκB nuclear localization [3]: reduced
